From PubChem BioAssay (NCI)
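Results reflect a 48-hour exposure of cells in 96-well plates to compound at five concentrations. TGI: concentration producing complete growth inhibition.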

Legend:
Assay in all cases: NCI anticancer screen, dose series, 48 h
DLD-1 colon = tested on: DLD-1 colon
SF-268 CNS = tested on: SF-268 CNS
HL-60(TB) leukemia = tested on: HL-60(TB) leukemia
OVCAR-5 ovarian = tested on: OVCAR-5 ovarian
CCRF-CEM leukemia = tested on: CCRF-CEM leukemia
DMS 114 small cell lung = tested on: DMS 114 small cell lung
MOLT-4 leukemia = tested on: MOLT-4 leukemia
SN12C renal = tested on: SN12C renal
HOP-62 NSCLC = tested on: HOP-62 NSCLC
UACC-62 melanoma = tested on: UACC-62 melanoma
RXF 393 renal = tested on: RXF 393 renal
HT29 colon = tested on: HT29 colon
HCT-15 colon = tested on: HCT-15 colon
NCI-H522 lung = tested on: NCI-H522 lung
SNB-19 CNS = tested on: SNB-19 CNS
ACHN renal = tested on: ACHN renal
NCI-H460 lung = tested on: NCI-H460 lung
U251 CNS = tested on: U251 CNS
RPMI-8226 leukemia = tested on: RPMI-8226 leukemia
EKVX NSCLC = tested on: EKVX NSCLC
HCC-2998 colon = tested on: HCC-2998 colon
SF-539 CNS = tested on: SF-539 CNS
K-562 leukemia = tested on: K-562 leukemia
OVCAR-3 ovarian = tested on: OVCAR-3 ovarian
LXFL 529 NSCLC = tested on: LXFL 529 NSCLC
SNB-75 CNS = tested on: SNB-75 CNS
SK-OV-3 ovarian = tested on: SK-OV-3 ovarian
M19-MEL melanoma = tested on: M19-MEL melanoma
KM12 colon = tested on: KM12 colon
NCI-H23 lung = tested on: NCI-H23 lung
HCT-116 colon = tested on: HCT-116 colon
SK-MEL-28 melanoma = tested on: SK-MEL-28 melanoma
OVCAR-4 ovarian = tested on: OVCAR-4 ovarian
SNB-78 CNS = tested on: SNB-78 CNS
LOX IMVI melanoma = tested on: LOX IMVI melanoma
UACC-257 melanoma = tested on: UACC-257 melanoma
A498 renal = tested on: A498 renal
MALME-3M melanoma = tested on: MALME-3M melanoma
M14 melanoma = tested on: M14 melanoma
SR leukemia = tested on: SR leukemia
UO-31 renal = tested on: UO-31 renal
TK-10 renal = tested on: TK-10 renal
SK-MEL-2 melanoma = tested on: SK-MEL-2 melanoma
XF 498 CNS = tested on: XF 498 CNS
DMS 273 small cell lung = tested on: DMS 273 small cell lung
HOP-18 NSCLC = tested on: HOP-18 NSCLC
SW-620 colon = tested on: SW-620 colon
HOP-92 NSCLC = tested on: HOP-92 NSCLC
COLO 205 colon = tested on: COLO 205 colon
NCI-H226 lung = tested on: NCI-H226 lung
SF-295 CNS = tested on: SF-295 CNS
A549 NSCLC = tested on: A549 NSCLC
786-0 renal = tested on: 786-0 renal
IGROV1 ovarian = tested on: IGROV1 ovarian
OVCAR-8 ovarian = tested on: OVCAR-8 ovarian
KM20L2 colon = tested on: KM20L2 colon
SK-MEL-5 melanoma = tested on: SK-MEL-5 melanoma
CAKI-1 renal = tested on: CAKI-1 renal

Nc1n[nH]c(CCCCCCCc2nc(N)n[nH]2)n1
TGI (DLD-1 colon): > 100 µM
TGI (SF-268 CNS): > 100 µM
TGI (HL-60(TB) leukemia): > 100 µM
TGI (OVCAR-5 ovarian): > 100 µM
TGI (CCRF-CEM leukemia): > 100 µM
TGI (DMS 114 small cell lung): > 100 µM
TGI (MOLT-4 leukemia): > 100 µM
TGI (SN12C renal): > 100 µM
TGI (HOP-62 NSCLC): > 100 µM
TGI (UACC-62 melanoma): > 100 µM
TGI (RXF 393 renal): > 100 µM
TGI (HT29 colon): > 100 µM
TGI (HCT-15 colon): > 100 µM
TGI (NCI-H522 lung): > 100 µM
TGI (SNB-19 CNS): > 100 µM
TGI (ACHN renal): > 100 µM
TGI (NCI-H460 lung): > 100 µM
TGI (U251 CNS): > 100 µM
TGI (RPMI-8226 leukemia): > 100 µM
TGI (EKVX NSCLC): > 100 µM
TGI (HCC-2998 colon): > 100 µM
TGI (SF-539 CNS): > 100 µM
TGI (K-562 leukemia): > 100 µM
TGI (OVCAR-3 ovarian): > 100 µM
TGI (LXFL 529 NSCLC): > 100 µM
TGI (SNB-75 CNS): > 100 µM
TGI (SK-OV-3 ovarian): > 100 µM
TGI (M19-MEL melanoma): > 100 µM
TGI (KM12 colon): > 100 µM
TGI (NCI-H23 lung): > 100 µM
TGI (HCT-116 colon): > 100 µM
TGI (SK-MEL-28 melanoma): > 100 µM
TGI (OVCAR-4 ovarian): > 100 µM
TGI (SNB-78 CNS): > 100 µM
TGI (LOX IMVI melanoma): > 100 µM
TGI (UACC-257 melanoma): > 100 µM
TGI (A498 renal): > 100 µM
TGI (MALME-3M melanoma): > 100 µM
TGI (M14 melanoma): > 100 µM
TGI (SR leukemia): > 100 µM
TGI (UO-31 renal): > 100 µM
TGI (TK-10 renal): > 100 µM
TGI (SK-MEL-2 melanoma): > 100 µM

CSC(=N)N1N=C2/C(=C/c3ccccc3)CCC[C@H]2[C@H]1c1ccccc1
TGI (DLD-1 colon): 14.5 µM
TGI (XF 498 CNS): 23.5 µM
TGI (DMS 273 small cell lung): 11.8 µM
TGI (SF-268 CNS): 37.9 µM
TGI (HL-60(TB) leukemia): 4.29 µM
TGI (OVCAR-5 ovarian): 14.7 µM
TGI (CCRF-CEM leukemia): 8.2 µM
TGI (DMS 114 small cell lung): 7.83 µM
TGI (HOP-18 NSCLC): 14.3 µM
TGI (SW-620 colon): 15.3 µM
TGI (HOP-92 NSCLC): 19.5 µM
TGI (MOLT-4 leukemia): 12.6 µM
TGI (SN12C renal): 14.1 µM
TGI (COLO 205 colon): 2.93 µM
TGI (HOP-62 NSCLC): 20.8 µM
TGI (UACC-62 melanoma): 23.9 µM
TGI (NCI-H226 lung): 11.2 µM
TGI (RXF 393 renal): 9.85 µM
TGI (HT29 colon): 5.54 µM
TGI (HCT-15 colon): 20.9 µM
TGI (NCI-H522 lung): 17.2 µM
TGI (SNB-19 CNS): 19.3 µM
TGI (SF-295 CNS): 16.9 µM
TGI (A549 NSCLC): 16.3 µM
TGI (ACHN renal): 11.8 µM
TGI (NCI-H460 lung): 20.1 µM
TGI (U251 CNS): 25.9 µM
TGI (RPMI-8226 leukemia): 7.12 µM
TGI (EKVX NSCLC): 19.4 µM
TGI (HCC-2998 colon): 10.4 µM
TGI (786-0 renal): 20.3 µM
TGI (SF-539 CNS): 19.5 µM
TGI (K-562 leukemia): 6.09 µM
TGI (IGROV1 ovarian): 9.18 µM
TGI (OVCAR-3 ovarian): 23.8 µM
TGI (LXFL 529 NSCLC): 16.7 µM
TGI (SK-OV-3 ovarian): 18.2 µM
TGI (KM12 colon): 23.2 µM
TGI (NCI-H23 lung): 19.2 µM
TGI (HCT-116 colon): 9.83 µM
TGI (SK-MEL-28 melanoma): 12 µM
TGI (OVCAR-4 ovarian): 11.8 µM
TGI (SNB-78 CNS): 34.6 µM
TGI (LOX IMVI melanoma): 16.2 µM
TGI (UACC-257 melanoma): 6.92 µM
TGI (A498 renal): 18.4 µM
TGI (OVCAR-8 ovarian): 24.8 µM
TGI (MALME-3M melanoma): 3.94 µM
TGI (M14 melanoma): 14.8 µM
TGI (KM20L2 colon): 5.97 µM
TGI (SR leukemia): 4.6 µM
TGI (UO-31 renal): 13.4 µM
TGI (TK-10 renal): 25.8 µM
TGI (SK-MEL-2 melanoma): 15.4 µM

NC(CCCCNCc1ccccc1O)C(=O)O (stereo unspecified)
TGI (DLD-1 colon): > 100 µM
TGI (DMS 273 small cell lung): > 100 µM
TGI (SF-268 CNS): > 100 µM
TGI (HL-60(TB) leukemia): > 100 µM
TGI (OVCAR-5 ovarian): > 100 µM
TGI (CCRF-CEM leukemia): > 100 µM
TGI (DMS 114 small cell lung): > 100 µM
TGI (HOP-18 NSCLC): > 100 µM
TGI (SW-620 colon): > 100 µM
TGI (HOP-92 NSCLC): > 100 µM
TGI (MOLT-4 leukemia): > 100 µM
TGI (SN12C renal): > 100 µM
TGI (COLO 205 colon): > 100 µM
TGI (HOP-62 NSCLC): > 100 µM
TGI (SK-MEL-5 melanoma): > 100 µM
TGI (UACC-62 melanoma): > 100 µM
TGI (NCI-H226 lung): > 100 µM
TGI (HT29 colon): > 100 µM
TGI (HCT-15 colon): > 100 µM
TGI (NCI-H522 lung): > 100 µM
TGI (SNB-19 CNS): > 100 µM
TGI (SF-295 CNS): > 100 µM
TGI (A549 NSCLC): > 100 µM
TGI (ACHN renal): > 100 µM
TGI (NCI-H460 lung): > 100 µM
TGI (U251 CNS): > 100 µM
TGI (RPMI-8226 leukemia): > 100 µM
TGI (EKVX NSCLC): > 100 µM
TGI (HCC-2998 colon): > 100 µM
TGI (786-0 renal): > 100 µM
TGI (SF-539 CNS): > 100 µM
TGI (K-562 leukemia): > 100 µM
TGI (IGROV1 ovarian): > 100 µM
TGI (CAKI-1 renal): > 100 µM
TGI (OVCAR-3 ovarian): > 100 µM
TGI (LXFL 529 NSCLC): > 100 µM
TGI (SNB-75 CNS): > 100 µM
TGI (SK-OV-3 ovarian): > 100 µM
TGI (M19-MEL melanoma): > 100 µM
TGI (KM12 colon): > 100 µM
TGI (NCI-H23 lung): > 100 µM
TGI (HCT-116 colon): > 100 µM
TGI (SK-MEL-28 melanoma): > 100 µM
TGI (OVCAR-4 ovarian): > 100 µM
TGI (SNB-78 CNS): > 100 µM
TGI (LOX IMVI melanoma): > 100 µM
TGI (UACC-257 melanoma): > 100 µM
TGI (A498 renal): > 100 µM
TGI (OVCAR-8 ovarian): > 100 µM
TGI (MALME-3M melanoma): > 100 µM
TGI (M14 melanoma): > 100 µM
TGI (KM20L2 colon): > 100 µM
TGI (UO-31 renal): > 100 µM
TGI (TK-10 renal): > 100 µM
TGI (SK-MEL-2 melanoma): > 100 µM

O=C(Nc1nc2ncn(CCO)c2c(=O)[nH]1)c1ccccc1
TGI (DLD-1 colon): > 100 µM
TGI (DMS 273 small cell lung): > 100 µM
TGI (SF-268 CNS): > 100 µM
TGI (HL-60(TB) leukemia): > 100 µM
TGI (OVCAR-5 ovarian): > 100 µM
TGI (CCRF-CEM leukemia): > 100 µM
TGI (DMS 114 small cell lung): > 100 µM
TGI (HOP-18 NSCLC): > 100 µM
TGI (SW-620 colon): > 100 µM
TGI (HOP-92 NSCLC): > 100 µM
TGI (SN12C renal): > 100 µM
TGI (COLO 205 colon): > 100 µM
TGI (HOP-62 NSCLC): > 100 µM
TGI (SK-MEL-5 melanoma): > 100 µM
TGI (UACC-62 melanoma): > 100 µM
TGI (NCI-H226 lung): > 100 µM
TGI (RXF 393 renal): > 100 µM
TGI (HT29 colon): > 100 µM
TGI (HCT-15 colon): > 100 µM
TGI (NCI-H522 lung): > 100 µM
TGI (SNB-19 CNS): > 100 µM
TGI (SF-295 CNS): > 100 µM
TGI (A549 NSCLC): > 100 µM
TGI (ACHN renal): > 100 µM
TGI (NCI-H460 lung): > 100 µM
TGI (U251 CNS): > 100 µM
TGI (RPMI-8226 leukemia): > 100 µM
TGI (EKVX NSCLC): > 100 µM
TGI (786-0 renal): > 100 µM
TGI (SF-539 CNS): > 100 µM
TGI (K-562 leukemia): > 100 µM
TGI (IGROV1 ovarian): > 100 µM
TGI (CAKI-1 renal): > 100 µM
TGI (OVCAR-3 ovarian): > 100 µM
TGI (LXFL 529 NSCLC): > 100 µM
TGI (SNB-75 CNS): > 100 µM
TGI (SK-OV-3 ovarian): > 100 µM
TGI (M19-MEL melanoma): > 100 µM
TGI (KM12 colon): > 100 µM
TGI (HCT-116 colon): > 100 µM
TGI (SK-MEL-28 melanoma): > 100 µM
TGI (OVCAR-4 ovarian): > 100 µM
TGI (SNB-78 CNS): > 100 µM
TGI (LOX IMVI melanoma): > 100 µM
TGI (UACC-257 melanoma): > 100 µM
TGI (A498 renal): > 100 µM
TGI (OVCAR-8 ovarian): > 100 µM
TGI (MALME-3M melanoma): > 100 µM
TGI (M14 melanoma): > 100 µM
TGI (KM20L2 colon): > 100 µM
TGI (SR leukemia): > 100 µM
TGI (UO-31 renal): > 100 µM
TGI (TK-10 renal): > 100 µM
TGI (SK-MEL-2 melanoma): > 100 µM
